Type in all cases: biochemical
Test [1] has as its target T1, PIP4K2A (Homo sapiens, UniProt P48426).
T1 sequence (P48426 1-406): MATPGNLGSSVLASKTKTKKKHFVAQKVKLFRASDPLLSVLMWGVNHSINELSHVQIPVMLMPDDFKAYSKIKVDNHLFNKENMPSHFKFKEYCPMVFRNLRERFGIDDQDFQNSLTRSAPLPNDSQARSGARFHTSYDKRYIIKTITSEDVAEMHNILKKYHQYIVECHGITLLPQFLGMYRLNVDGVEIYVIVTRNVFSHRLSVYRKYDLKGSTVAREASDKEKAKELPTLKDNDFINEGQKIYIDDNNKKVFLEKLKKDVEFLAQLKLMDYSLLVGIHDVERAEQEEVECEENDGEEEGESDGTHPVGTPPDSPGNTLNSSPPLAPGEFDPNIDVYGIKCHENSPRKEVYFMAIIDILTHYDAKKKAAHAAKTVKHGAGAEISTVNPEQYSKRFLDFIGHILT
As to the kind of experiment: ADP-glo kinase assay PIP4K 2A (Table 3). On the set-up: made in house; host or cells: E. coli. The following applies: compounds listed under IC50 bins. A digest of the protocol:
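Full-length PIP4K2A (4 nM in the mix) with 100 μM PI(5)P diC8 pre-incubated 15 min with compound in MOPS pH 7.2, 25 mM MgCl2; ATP added (60 μM solution), 1 h at RT. ADP formed read by ADP-Glo luminescence; 10-point curves versus DMSO controls fitted to IC50.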
(ADP-Glo first removes unused ATP, then detects ADP through luciferase.)

The next test concerns the target T2, PIP4K2B (Homo sapiens, UniProt P78356).
T2 construct: made in house; host or cells: E. coli
T2 sequence (P78356 1-416): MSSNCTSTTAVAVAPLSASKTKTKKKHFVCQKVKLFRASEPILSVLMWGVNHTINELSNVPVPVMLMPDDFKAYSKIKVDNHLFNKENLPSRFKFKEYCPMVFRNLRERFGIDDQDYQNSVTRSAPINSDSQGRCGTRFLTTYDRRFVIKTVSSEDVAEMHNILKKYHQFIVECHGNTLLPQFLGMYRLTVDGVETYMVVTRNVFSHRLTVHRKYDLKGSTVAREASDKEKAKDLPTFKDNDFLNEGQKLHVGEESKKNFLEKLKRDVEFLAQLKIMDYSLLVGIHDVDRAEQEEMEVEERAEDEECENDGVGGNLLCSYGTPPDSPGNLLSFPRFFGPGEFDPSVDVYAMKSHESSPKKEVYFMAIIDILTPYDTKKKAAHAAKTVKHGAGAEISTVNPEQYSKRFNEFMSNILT
As to the kind of experiment: Trans-FI P kinase assay PIP4K2B (Table 4). The following applies: compounds listed under IC50 bins; read-out: Trans-FI P kinase assays: PIP4K2B IC50. The procedure, abridged:
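Transcreener FI detection (Ex 584/Em 623) of GDP, converted via calibration curve, gives IC50 from residual activity versus log concentration (highest 4.8 μM). Reaction: 80 μM PI5P plus DOPE carrier, 100 μM GTP, 5 nM GST-tagged enzyme, pH 7.3 HEPES with MgCl2 and 5% DMSO, 2 h after 1 h enzyme-compound preincubation at 27° C.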

Test [2] deals with T1, PIP4K2A. As to the kind of experiment: Kinase Assay PIP4K2 A (Table 2). Also noted: 4 nM PIP4K2A (full length protein, SignalChem); purchased SignalChem. The following applies: compounds listed under IC50 bins. The procedure, abridged:
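Full-length PIP4K2A (4 nM in the added mix, with 100 μM PI(5)P diC8) pre-incubated 15 min at RT with compounds (10-point, 3-fold series) in 20 mM MOPS pH 7.2, 25 mM MgCl2, 0.005% Tween 20. ATP added from a 60 μM solution, 1 h at RT; ADP-Glo luminescence, IC50 fitted from % inhibition versus DMSO.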

This passage reports IC50 results from patent publication US11667651B2, “Aminopyridine derivatives as phosphatidylinositol phosphate kinase inhibitors” (HiberCell, Inc., priority 2017, dated 2023).

For `CN(C)C(=O)c1ccc(-c2ccc(Nc3cnc4c(c3)N3C(=O)CC[C@H]3CO4)nc2)cc1` [Example 242, (S)-N,N-dimethyl-4-(6-((9-oxo-6a,7,8,9-tetrahydro-6H-pyrido[2,3-b]pyrrolo[1,2-d][1,4]oxazin-2-yl)amino)pyridin-3-yl)benzamide], the figures for the IC50 on PIP4K2A [1], at PIP4K2B and against PIP4K2A [2] were 1 to 10 nM, 10 to 100 nM and 1 to 10 nM, respectively.
On to `O=C1CCCN1c1ccc(-c2ccc(Nc3cnc4c(c3)N3C(=O)CC[C@H]3CO4)nc2)cc1F` [Example 246, (S)-2-((5-(3-fluoro-4-(2-oxopyrrolidin-1-yl)phenyl)pyridin-2-yl)amino)-6,6a,7,8-tetrahydro-9H-pyrido[2,3-b]pyrrolo[1,2-d][1,4]oxazin-9-one], for which the IC50 against PIP4K2A [1] fell in the range of 1 to 10 nM; at PIP4K2B, 10 to 100 nM; at PIP4K2A [2], 1 to 10 nM.
Consider `CCO[C@H]1C[C@@H]1C(=O)Nc1cncc(Nc2ccc(-c3ccc(N4CCCC4=O)cc3)cn2)c1` [Example 252, (1S,2S)-2-ethoxy-N-(5-((5-(4-(2-oxopyrrolidin-1-yl)phenyl)pyridin-2-yl)amino)pyridin-3-yl)cyclopropane-1-carboxamide], for which the IC50 lay in the range of 10 to 100 nM at PIP4K2A [1], 10 to 100 nM at PIP4K2B and 1 to 10 nM at PIP4K2A [2].
Regarding `CC1(C)C[C@H]2COc3ncc(Nc4ccc(-c5ccc(N6CCCC6=O)c(F)c5)cn4)cc3N2C1=O` [Example 258, (S)-2-((5-(3-fluoro-4-(2-oxopyrrolidin-1-yl)phenyl)pyridin-2-yl)amino)-8,8-dimethyl-6,6a,7,8-tetrahydro-9H-pyrido[2,3-b]pyrrolo[1,2-d][1,4]oxazin-9-one], the IC50 was in the range of 1 to 10 nM at PIP4K2A [1], 10 to 100 nM at PIP4K2B and 1 to 10 nM against PIP4K2A [2].
`O=C1CCCN1c1ccc(-c2ccc(Nc3cnc4c(c3)N3C(=O)C(O)C[C@H]3CO4)nc2)cc1F` (stereo partly drawn) [Example 267, (6aS)-2-((5-(3-fluoro-4-(2-oxopyrrolidin-1-yl)phenyl)pyridin-2-yl)amino)-8-hydroxy-6,6a,7,8-tetrahydro-9H-pyrido[2,3-b]pyrrolo[1,2-d][1,4]oxazin-9-one]: the half-inhibitory concentration (IC50) at PIP4K2A [1] is 10 to 100 nM; at PIP4K2B, 10 to 100 nM; against PIP4K2A [2] it was 1 to 10 nM.
Take `O=C1CCCN1c1ccc(-c2ccc(Nc3cnc4c(c3)N3C(=O)C(O)C[C@H]3CO4)nc2)cc1` (stereo partly drawn) [Example 268, (6aS)-8-hydroxy-2-((5-(4-(2-oxopyrrolidin-1-yl)phenyl)pyridin-2-yl)amino)-6,6a,7,8-tetrahydro-9H-pyrido[2,3-b]pyrrolo[1,2-d][1,4]oxazin-9-one]: the IC50 at PIP4K2A [1] was in the range of 10 to 100 nM; at PIP4K2B, 10 to 100 nM; at PIP4K2A [2], 1 to 10 nM.

For orientation: IC50 means the concentration that inhibits the measured activity by half.
